These are literature values, as cited in US7642235B2, “Macrocyclic peptides active against the hepatitis C virus” (Boehringer Ingelheim International GmbH, priority 2003, dated 2010).

The test system of the data set is hepatitis C virus. Conditions: two day clinical trial; Nature (2003) 426, p.186-189.

For the compound `COc1ccc2c(O[C@@H]3C[C@H]4C(=O)N[C@]5(C(=O)O)C[C@H]5/C=C\CCCCC[C@H](NC(=O)OC5CCCC5)C(=O)N4C3)cc(-c3csc(NC(C)C)n3)nc2c1` [BILN 2061], the “viral loads in patients infected with the hepatitis C virus” value is “effective in rapidly reducing viral loads”.
